Test results taken from patent publication US11759439B2, “Bromhexine for the treatment of pain” (priority 2017, dated 2023).
Entries after “also recorded” stand apart in the source; their conditions may differ.

Experiments:
[1] = molecular target: T1, tetrodotoxin-resistant (TTXr) Na+ currents encoded by Nav1.8 (Homo sapiens, UniProt Q9Y5Y9); settings: preference for TTXr Na+ currents encoded by Nav1.8; cited from earlier work
T1 construct: host or cells: sensory neurons

humans = settings: cited from earlier work
rodents = settings: cited from earlier work
[2] = tested on: patient with neuropathic pain in both feet; test: Case report 2: topical bromhexine cream, NRS pain score, neuropathic forefoot pain; format: in vivo, human; settings: for effect of earlier treatment (patient history): before bromhexine
Source text: (§1) In the following Examples a dermal topical cream was used comprising 20% (w/w) bromhexine HCl (10 g), medium-chain triglycerides (MCTs; Triglycerida Saturata Medium Migloyol® 812N, FAGRON GmbH & Co. KG, Cas No. 73398-61-5) (5 g), Linola Creme ad 50 g (Dr. August Wolff GmbH & Co. KG Arzneimittel, PZN 02489672; emulsion O/W containing unsaturated fatty acids (C182), carbomer 980, decyloleat, glycerol monosterate, ceteareth-3, phenoxyethanol, stearic acid, trometamol, wax bleached and purified water), unless stated otherwise. The dermal topical cream was prepared by mixing bromhexine with the MCTs and adding the Linola Creme to obtain a homogenous cream. We chose a dermal topical cream rather than a gel, because a cream is better absorbed by the skin. Bromhexine was fast and easy to formulate into a topical pharmaceutical composition, particularly into a homogenous cream.
(§2) The dermal topical cream was administered (thinly) to the skin in the affected area and a beneficial effect was typically noticed within 30 min. The effect lasted for about 4 to 12 hours, typically 6 hours. For long term treatment the cream was administered 2 to 3 times per day. In some cases a once daily administration was sufficient.
(§3) In all case reports shown below, the intensity of pain is reported with the NRS-Score (NRS=numeric rating scale) on which the patient rates their pain between ‘0=no pain’ and ‘10=unbearable pain’. The NRS-Score is the standard of pain evaluation in international publications and according to the literature an intensity of NRS 3 or lower usually is felt as ‘tolerable’ by patients with chronic pain.
The […] presented neuropathic pain in both feet and felt “running on coals” and as “gripped in a vice”, walking or gardening were almost impossible. It could not be explained in orthopaedic terms and no polyneuropathy was detected on neurographic investigation. […] Gabapentin, opiates and topical lidocaine were not helpful. After topical bromhexine the pain of NRS 5 during the heel-to-toe roll and the forefoot touch sensitivity decreased to NRS 1 within 15 min and disappeared after 30 min for hours (FIG. 6, last columns, “neuropathic forefoot pain”).

[3] = tested on: patient with osteoarthritis in both knees and chronic postsurgical pain (CPSP) after knee replacement; test: Case report 1: topical bromhexine cream, NRS pain score, knees; format: in vivo, human
Source text: as §1, §2, §3
A patient suffered from osteoarthritis in both knees and had received knee replacement followed by chronic postsurgical pain (CPSP) in one of it. […] Starting on a pain level of NRS 7, 30 min after topical bromhexine the pain decreased to NRS 6 and to NRS 4 within 2 hours. […] On another occasion the pain was reduced in both knees from NRS 6 before bromhexine treatment to NRS 3 after 2 hours.

mucus = settings: cited from earlier work
treated patients = test: Topical bromhexine cream in pain patients: onset, duration, side effects (all cases); format: in vivo, human
Source text: as §1
as §2, with “sufficient. […]” for “sufficient.”

[4] = in vivo; cited from earlier work
[5] = tested on: patient with chronic pain caused by osteoarthritis of the fingers; test: Case report 9: topical bromhexine, osteoarthritis of the fingers; format: in vivo, human; settings: 15 min after topical bromhexine; before: incomplete and very painful
Source text: as §1, §2
A patient with chronic pain caused by osteoarthritis of the fingers for many years. Forming a fist was incomplete and very painful. […]

[6] = tested on: patient with fibromyalgia pain; test: Case report 11: topical bromhexine, fibromyalgia pain of the hands; format: in vivo, human
Source text: as §1
as §2, with “sufficient. […]” for “sufficient.”

[7] = tested on: patient with pain in right hand and wrist due to osteoarthritis; test: Case report 3: topical bromhexine cream, NRS pain score, osteoarthritis of hand and wrist; format: in vivo, human; settings: within 2 hours after topical bromhexine cream; NRS 6 before treatment
Source text: as §1
as §2, with “sufficient. […]” for “sufficient.”

[8] = tested on: patient with severe chronic low back pain and S1 radiculopathy; test: Case report 5: topical bromhexine, low back pain (S1-radiculopathy); format: in vivo, human
Source text: as §1
as §2, with “sufficient. […]” for “sufficient.”

[9] = tested on: patient with postherpetic neuralgia; test: Case report 4: topical bromhexine, postherpetic neuralgia; format: in vivo, human; settings: for pain in the treated area (NRS): untreated abdominal area unchanged
Source text: as §1, §2, §3
A patient contracted an infection with the herpes zoster virus followed by skin eruptions 3 years ago. In the affected area of the right thorax they developed a dynamic allodynia and pinprick hyperalgesia and hypersensitivity to cold and airbrush which spread out circular to the abdominal region. Only the dorsal part of the area was treated with bromhexine. […]

[10] = tested on: patient with complex regional pain syndrome (CRPS); test: Case report 7: topical bromhexine, complex regional pain syndrome (CRPS); format: in vivo, human; settings: 30-45 min following the treatment
Source text: as §1
as §2, with “sufficient. […]” for “sufficient.”

[11] = tested on: patient with painful left knee after meniscus surgery; test: Case report 3: topical bromhexine, NRS pain score, knee pain after meniscus surgery; format: in vivo, human; settings: after bromhexine treatment; NRS 8 before; time not stated
Source text: as §1
as §2, with “sufficient. […]” for “sufficient.”

[12] = tested on: patient with severe fibromyalgia pain; test: Case report 10: topical bromhexine, severe fibromyalgia; format: in vivo, human; settings: 25 min after topical bromhexine
Source text: as §1, §2
A patient with severe fibromyalgia pain presented an exacerbation with painful hand/finger movements and swelling. […] The patient was surprised about the reduced swelling, the possibility of the closure of fist and a reduction of the functional impairment during movement. Closure of the fist was only possible to a half-closed position without (or almost no) pain before treatment (FIG. 4C, top panel).

[13] = tested on: patient with chronic severe pain syndrome of both hands and arms from unclear origin; test: Case report 8: topical bromhexine, chronic unclear severe pain syndrome of hands and arms; format: in vivo, human
Source text: as §1, §2
Further the extent of possible finger spreading was much better in their left hand, which was treated with the bromhexine compared to their untreated right hand (FIG. 1 C). Particularly the extent of the “pain limited” finger spreading of their bromhexine treated left hand hand compared to their untreated right hand increased. In their untreated right hand pain started immediately with the first movement. Further, the extent of possible free of pain elbow rotation 20 min after bromhexine in their left treated elbow increased (FIG. 1D, bottom panel). No movement free of pain was possible in their right elbow (FIG. 1D, top panel).

[14] = tested on: patient with rheumatoid arthritis and fibromyalgia; test: Case report 6: topical bromhexine cream, rheumatoid arthritis and fibromyalgia, hands; format: in vivo, human
Source text: as §1, §2
A rheumatoid arthritis and fibromyalgia for many years developed a chronic pain disease in a person. Hands were distorted painfully and movements like the closure of fist were only possible very slowly and the movement was painful and incomplete. Self-supply was threatened. The medical options for pain therapy were limited due to long-term side effects on stomach, kidney, cardiovascular system and liver by nonsteroidal anti-rheumatic drugs (NSAIDS) or coxibes as well as the risk of tumbling caused by central nervous effects as sedation and dizziness. Bromhexine cream was applied at both hands. Already 2 min later the patients started to move both hands and ‘searched their pain’ because it was improved and movements could be performed more easily, quickly and complete. […]

Compound: Nc1c(Br)cc(Br)cc1CN[C@H]1CC[C@H](O)CC1 [Ambroxol]
- Na+ currents in sensory neurons [1]: block Na+ currents
- pain (humans): alleviate pain
- pain-related behavior (rodents): reduce pain-related behavior

Compound: NCC1(CC(=O)O)CCCCC1 [Gabapentin]
- effect of earlier treatment (patient history) [2]: not helpful

Compound: CCN(CC)CC(=O)Nc1c(C)cccc1C [lidocaine]
- effect of earlier treatment (patient history) [2]: not helpful
- effect of earlier treatment (patient history) ([3]; topical plasters, before bromhexine): not been helpful

Compound: CN(Cc1cc(Br)cc(Br)c1N)C1CCCCC1 [bromhexine, 2,4-dibromo-6-[[cyclohexyl(methyl)amino]methyl]aniline]
- secretion volume (mucus; in vivo): increases
- viscosity of the sputum (mucus; in vivo): decreases
- side-effects (mucus; known oral use): very few side-effects
- side effects (treated patients): None of the treated patients reported side effects
- functional impairment of walking ([2]; 8 hours later): without recurrence
- pain level (NRS) ([2]; 8 hours later, NRS 5 before): 2 NRS
- pain during heel-to-toe roll and forefoot touch sensitivity ([2]; after 30 min, for hours, NRS 5 before): disappeared
- pain level (NRS) during heel-to-toe roll and forefoot touch sensitivity ([2]; within 15 min after topical bromhexine, NRS 5 before): 1 NRS
- bioavailability [4]: relatively low
- hepatic first-pass effect [4]: up to 80%
- passage of the blood-brain barrier [4]: pass the blood-brain barrier
- closure of the fist [5]: closed completely and with reduced pain; also recorded: performed completely and with reduced pain
- stabbing ([6]; 30 min following topical bromhexine): disappeared
- pain in both hands with tension, stiffness, swelling and stabbing ([6]; 30 min following topical bromhexine to the hands, NRS 5 before): disappeared broadly
- pain (NRS) [7]: 0.5 NRS
- pain level (NRS) ([3]; 30 min after topical bromhexine, starting pain level NRS 7, knee with CPSP): 6 NRS
- pain level (NRS) ([3]; another occasion, both knees, NRS 6 before bromhexine, after 2 hours): 3 NRS
- pain level (NRS) ([3]; within 2 hours after topical bromhexine, starting pain level NRS 7, knee with CPSP): 4 NRS
- stabbing sensations ([8]; after bromhexine): reduced
- pain level (NRS) ([8]; within 30 minutes, NRS 6 before bromhexine): about 4
- pain in the treated area (NRS) ([9]; after 15 min): 4 NRS
- pain in the treated area (NRS) ([9]; after 30 min): 1 NRS
- tingling sensation and subjective hypersensitivity ([9]; after the first few minutes, treated dorsal area): disappeared completely
- motions of the hand [10]: without stabbing sensations
- burning pain (NRS) ([10]; 8 NRS before): 3 NRS
- pain intensity (NRS) [11]: 4.5 NRS
- swelling of the treated right hand [12]: strongly reduced
- closure of the fist ([12]; before: only half-closed without pain): completely possible without pain; also recorded: closed completely and without pain
- movement of the thumb to the palm ([12]; impossible before): free of pain; also recorded: not any longer limited by pain
- swelling in the treated area ([13]; 20 min after bromhexine): reduction of swelling
- extent of possible free of pain elbow rotation ([13]; 20 min after bromhexine, left treated elbow): increased
- reddening of the treated left hand ([13]; 20 min following topical bromhexine, right hand untreated): reduction of reddening
- pain and feeling of swelling and tension ([13]; 20 min following topical bromhexine, treated left hand): impressive reduction
- movements of the left hand and arm ([13]; about 30 min after bromhexine, none free of pain in untreated right arm): able to perform movements free of pain; also recorded: diverse possible movements free of pain
- extent of possible finger spreading ([13]; treated left hand compared to untreated right hand, 20 min): much better
- closure of fist ([14]; 5 min after topical bromhexine, both hands): improved notable in motion sequence; also recorded: improved notably in motion sequence
- time to first improvement of pain and movements ([14]; after application of bromhexine cream at both hands): 2 min
- duration of the improvement ([14]; in vivo): several hours
